Laboratory results from paper PMC9409646 (Marine Drugs, 2022).

System: hα3β4 nAChRs
Type: cell-based, human

Row | Substance | activity at hα3β4 nAChRs compared with wild-type Czon1107 (in words) | inhibition of ACh-evoked current amplitude
1 | Czon1107-P5R: Arg-scan analogue of Czon1107 (GFRSRCPPFC) | No significant change in activity | 
2 | Czon1107-F9A: Ala-scan analogue of Czon1107 (GFRSPCPPAC) | slight potency decrease | 
3 | Czon1107-P7R: Arg-scan analogue of Czon1107 (GFRSPCRPFC) |  | ~ 50%
4 | Czon1107-G1R: Arg-scan analogue of Czon1107 (RFRSPCPPFC) |  | ~ 50%
5 | Czon1107-P8R: Arg-scan analogue of Czon1107 (GFRSPCPRFC) | No significant change in activity | 
